Measured values taken from patent US4599362A, “2-aryl-ethyl ether derivatives and insecticidal and acaricidal agents containing said derivatives” (priority 1980, dated 1986).
Read-outs that look alike come from different tables or passages of the source.

Tests used:
[1] = system: resistant green rice leafhopper (collected at Nakagawara); experiment: Test 3: Effect on Resistant Green Rice Leafhopper; format: in vivo, Nephotettix cincticeps Uhler; conditions: Nephotettix cincticeps, 24 h, read-out: Mortality (%) Green Rice Leafhopper Collected at Nakagawara
Outline: (§1)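 Rice seedlings (2–3 leaves) sprayed with emulsifiable-concentrate dilutions at 100 or 20 ppm, 3 ml per pot, air-dried, then infested with 10 female adults per pot. Mortality counted after 24 h and averaged over three pots.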

[2] = system: Second-instar and fifth-instar larvae of tobacco cutworm; experiment: Test 2: Tobacco Cutworm Larva Dipping Test; format: in vivo
[3] = Test 8: Fish Toxicity; format: in vivo; conditions: carp, water, carps, concentration at which 1/2 of the test fishes were killed, read-out: Fish Toxicity, TLm48
Experimental: A water tank having a width of 60 cm, a length of 30 cm and a height of 40 cm was filled with water, and 10 yearling carps having a body length of about 5 cm were set free in the tank and adapted to the environment in the tank. A test compound was applied so that the concentration in water was 10, 1, or 0.1 ppm. After 48 hours, the numbers of killed and living carps were counted and the influences on the fishes were examined.

[4] = system: sensitive green rice leafhopper (collected at Chigasaki); experiment: Test 3: Effect on Sensitive Green Rice Leafhopper; format: in vivo; conditions: Nephotettix cincticeps, female adults, 24 hours
Outline: as §1

[5] = Test 9: Toxicity Test (acute oral, mice); conditions: mouse, in vivo, po
Outline: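 Compound dissolved or suspended in corn oil was given orally to male mice of 19–23 g body weight, at 0.2 ml per 10 g. Deaths and effects were recorded after 7 days.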

[6] = system: German cockroach; experiment: Test 7: Effect on German Cockroach; format: in vivo; conditions: Blattella germanica, male adults, 24 hours, agonized and killed; for mortality at 10 mg/m2: 10 mg/m^2; for mortality at 50 mg/m2: 50 mg/m^2
Outline: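 Dish bottoms were treated with 50 or 10 mg/m^2 of test compound and air-dried, then 10 male adult cockroaches were released per dish and held at 25° C. Agonized and killed adults were counted after 24 hours, averaged over two dishes.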

[7] = system: third-instar larvae of diamond back moth; experiment: Test 4: Effect on Diamond Back Moth; format: in vivo; conditions: Plutella xylostella, 24 hours
Outline: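 Emulsifiable concentrate diluted in water to 100 or 20 ppm and sprayed at 3 ml per cup onto cabbage leaves holding 10 third-instar diamondback moth larvae. Dead and living larvae counted after 24 h; mortality averaged over three cups.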

[8] = system: green peach aphids; experiment: Test 5: Effect on green peach Aphid; format: in vivo; conditions: Myzus persicae, 24 hours, mortality class, read-out: Insecticidal Activity
Experimental: To a mixture of 20 parts of the compound of the present invention and 20 parts of Sorpol SM-200 (registered trademark for the product supplied by Toho Chemical Industrial Co., Ltd.) was added 60 parts of xylol, and the mixture was sufficiently blended. The obtained emulsifiable concentrate was diluted at a predetermined concentration with distilled water, and the obtained dilution was used.
Seedlings (having 3 to 4 leaves) of an eggplant grown on a pot were inoculated with green peach aphids and the insects were allowed to grow. The number of the insects was counted. A chemical dilution having a concentration of 100 ppm, prepared in the same manner as described in Test 1, was applied with a spray gun at a rate of 10 ml per pot. Then, the pot was placed in a glass green house. After 24 hours, the number of living insects was counted and the mortality was calculated.
The test was made on three pots, and the average value was calculated. In Table 6, mark "A" indicates a mortality higher than 95%, mark "B" indicates a mortality of 80 to 95%, mark "C" indicates a mortality of 50 to 80%, and mark "D" indicates a mortality lower than 50%.

[9] = system: two-spotted spider mite; experiment: Test 6: Effect on Two-Spotted Spider mite adults; format: in vivo; conditions: Tetranychus urticae; 500 ppm; adults; 24 hours; read-out: Mortality (%)
Outline: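 Kidney bean leaf discs (15 mm) on wet cotton, each holding 10 adult mites, sprayed with 3 ml of a 500 ppm dilution of an emulsifiable concentrate. Kept at 25° C; dead adults counted after 24 hours to give mortality, averaged over three discs.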

[10] = topical, 24 h, read-out: Mortality (%) Fifth-Instar Larvae

CC(C)(COCc1ccc(F)c(Oc2ccccc2)c1)c1ccccc1 [Compound 2, 3-Phenoxy-4-fluorobenzyl 2-phenyl-2-methylpropyl ether]
mortality at 20 ppm [1]: 100%
mortality at 100 ppm [1]: 100%
mortality at 20 ppm ([2]; 20 ppm, second-instar larvae, 24 hours, read-out: Mortality (%) Second-Instar Larvae): 100%
mortality at 100 ppm ([2]; 100 ppm, second-instar larvae, 24 hours, read-out: Mortality (%) Second-Instar Larvae): 100%
mortality at 20 ppm [2, 10]: 100%
mortality at 100 ppm [2, 10]: 100%
LC50 at 48 h [3]: > 1 µg/mL
mortality at 20 ppm [4]: 100%
mortality at 100 ppm [4]: 100%
LD50 at 168 h [5]: > 500 mg/kg
mortality at 10 mg/m2 [6]: 100%
mortality at 50 mg/m2 [6]: 100%
mortality at 20 ppm [7]: 100%
mortality at 100 ppm [7]: 100%
mortality at 100 ppm [8]: > 95%

CC(C)(CSCc1ccc(F)c(Oc2ccccc2)c1)c1ccc(Cl)cc1 [Compound 4, 3-Phenoxy-4-fluorobenzyl 2-(4-chlorophenyl)-2-methylpropyl thioether]
LC50 at 48 h [3]: > 0.5 µg/mL
LD50 at 168 h [5]: > 500 mg/kg
mortality at 10 mg/m2 [6]: 90%
mortality at 50 mg/m2 [6]: 100%
mortality at 20 ppm [7]: 90%
mortality at 100 ppm [7]: 100%
mortality at 500 ppm [9]: 90%
mortality at 100 ppm [8]: > 95%

CCCCCOc1ccc(C(C)(C)COCc2ccc(F)c(Oc3ccccc3)c2)cc1 [Compound 38, 3-Phenoxy-4-fluorobenzyl 2-(4-n-pentyloxyphenyl)-2-methylpropyl ether]
LC50 at 48 h [3]: > 1 µg/mL
mortality at 10 mg/m2 [6]: 100%
mortality at 50 mg/m2 [6]: 100%
mortality at 20 ppm [7]: 100%
mortality at 100 ppm [7]: 100%
mortality at 500 ppm [9]: 100%
mortality at 100 ppm [8]: > 95%

CC(C)(COCc1ccc(F)c(Oc2ccccc2)c1)c1cc(Cl)cc(Cl)c1 [Compound 48, 3-Phenoxy-4-fluorobenzyl 2-(3,5-dichlorophenyl)-2-methylpropyl ether]
mortality at 20 ppm [1]: 100%
mortality at 100 ppm [1]: 100%
LC50 at 48 h [3]: > 1 µg/mL
mortality at 20 ppm [4]: 100%
mortality at 100 ppm [4]: 100%
LD50 at 168 h [5]: > 500 mg/kg
mortality at 100 ppm [8]: 80 to 95%

CC(C)(COCc1ccc(F)c(Oc2ccccc2)c1)c1ccc(Oc2ccccc2)cc1 [Compound 52, 3-Phenoxy-4-fluorobenzyl 2-(4-phenoxyphenyl)-2-methylpropyl ether]
LC50 at 48 h [3]: > 1 µg/mL
mortality at 10 mg/m2 [6]: 100%
mortality at 50 mg/m2 [6]: 100%
mortality at 500 ppm [9]: 100%
mortality at 100 ppm [8]: > 95%

COCSc1ccc(C(C)(C)COCc2ccc(F)c(Oc3ccccc3)c2)cc1 [Compound 60, 3-Phenoxy-4-fluorobenzyl 2-(4-methoxymethylthiophenyl)-2-methylpropyl ether]
mortality at 20 ppm [1]: 100%
mortality at 100 ppm [1]: 100%
LC50 at 48 h [3]: > 1 µg/mL
mortality at 20 ppm [4]: 90%
mortality at 100 ppm [4]: 100%
mortality at 10 mg/m2 [6]: 100%
mortality at 50 mg/m2 [6]: 100%
mortality at 20 ppm [7]: 95%
mortality at 100 ppm [7]: 100%
mortality at 100 ppm [8]: > 95%

CC(C)(COCc1ccc(F)c(Oc2ccccc2)c1)c1ccc(-c2ccccc2)cc1 [Compound 61, 3-Phenoxy-4-fluorobenzyl 2-(4-biphenyl)-2-methylpropyl ether]
mortality at 20 ppm [1]: 100%
mortality at 100 ppm [1]: 100%
LC50 at 48 h [3]: > 1 µg/mL
mortality at 20 ppm [4]: 100%
mortality at 100 ppm [4]: 100%
LD50 at 168 h [5]: > 500 mg/kg
mortality at 10 mg/m2 [6]: 85%
mortality at 50 mg/m2 [6]: 100%
mortality at 500 ppm [9]: 100%
mortality at 100 ppm [8]: > 95%

CCOc1ccc(C(C)(C)COCc2ccc(F)c(Oc3ccc(Br)cc3)c2)cc1 [Compound 68, 3-(4-Bromophenoxy)-4-fluorobenzyl 2-(4-ethoxyphenyl)-2-methylpropyl ether]
mortality at 20 ppm [1]: 100%
mortality at 100 ppm [1]: 100%
LC50 at 48 h [3]: > 1 µg/mL
mortality at 20 ppm [4]: 100%
mortality at 100 ppm [4]: 100%
LD50 at 168 h [5]: > 500 mg/kg
mortality at 20 ppm [7]: 100%
mortality at 100 ppm [7]: 100%
mortality at 100 ppm [8]: > 95%
